Target: T1, P2X purinoceptor 7 (Homo sapiens, UniProt Q99572)
T1 sequence (Q99572 whole entry): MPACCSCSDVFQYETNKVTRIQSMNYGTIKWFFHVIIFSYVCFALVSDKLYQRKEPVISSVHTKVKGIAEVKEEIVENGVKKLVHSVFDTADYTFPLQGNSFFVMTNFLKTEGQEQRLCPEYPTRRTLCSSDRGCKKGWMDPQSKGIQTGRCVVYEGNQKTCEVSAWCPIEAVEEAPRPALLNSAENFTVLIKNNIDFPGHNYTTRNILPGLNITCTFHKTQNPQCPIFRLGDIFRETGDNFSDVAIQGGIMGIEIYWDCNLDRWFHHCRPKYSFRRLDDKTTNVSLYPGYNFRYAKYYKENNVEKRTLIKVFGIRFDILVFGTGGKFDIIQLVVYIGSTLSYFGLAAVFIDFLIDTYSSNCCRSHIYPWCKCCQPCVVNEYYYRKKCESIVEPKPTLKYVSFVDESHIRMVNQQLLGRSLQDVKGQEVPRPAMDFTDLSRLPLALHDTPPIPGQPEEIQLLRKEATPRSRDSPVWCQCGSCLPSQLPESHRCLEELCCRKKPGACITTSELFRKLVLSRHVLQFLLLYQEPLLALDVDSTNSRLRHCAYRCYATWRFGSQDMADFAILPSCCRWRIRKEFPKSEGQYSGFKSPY
Assay: SUPPLEMENTARY: Inhibition of human P2X7 receptor assessed as inhibition of ethidium bromide accumulation. Same assay as CHEMBL1103860

Compound	IC50
CCOc1ccc(-n2nc(C)c(CC(=O)NCc3ccc(F)cc3Cl)c2C)cc1	158 nM
O=C(c1ccc(F)cc1Cl)N1CCn2c(nnc2-c2cccc(F)c2)C1	15.8 nM
O=C(c1ccc(F)cc1Cl)N1CCn2c(nnc2-c2ccc(F)c(F)c2)C1	50.1 nM
O=C(c1cccc(C(F)(F)F)c1Cl)N1CCn2c(nc(Cl)c2Br)C1	2.51 nM
O=C(c1cccc(C(F)(F)F)c1Cl)N1CCn2c(nc(Br)c2-c2ccc(F)cc2)C1	31.6 nM
COc1cccc(-c2nnc3n2CCN(C(=O)c2ccc(F)cc2Cl)C3)c1	25.1 nM
O=C(c1ccc(F)cc1Cl)N1CCn2c(nnc2-c2cccc(Cl)c2)C1	12.6 nM
COc1ccccc1-c1nnc2n1CCN(C(=O)c1ccc(F)cc1Cl)C2	158 nM
O=C(c1ccc(F)c(Cl)c1Cl)N1CCn2c(nnc2-c2ccc(F)cn2)C1	1.58 nM
O=C(c1cccc(C(F)(F)F)c1Cl)N1CCn2c(nc(C(F)(F)F)c2-c2ccc(F)cc2)C1	79.4 nM
O=C(c1ccc(Cl)cc1Cl)N1CCn2c(nc(C(F)(F)F)c2-c2ccc(F)cc2)C1	158 nM
O=C(c1ccc(F)cc1Cl)N1CCn2c(nnc2-c2cccc3cccnc23)C1	251 nM
O=C(c1ccc(F)cc1Cl)N1CCn2c(nnc2-c2cccc(Cl)c2Cl)C1	100 nM
O=C(c1ccc(F)cc1Cl)N1CCn2c(nnc2-c2cccc(F)c2F)C1	39.8 nM
O=C(c1cccc(C(F)(F)F)c1Cl)N1CCn2c(Cl)cnc2C1	12.6 nM
O=C(c1ccc(F)cc1Cl)N1CCn2c(-c3cnccn3)cnc2C1	3.98 nM
O=C(c1ccc(Cl)cc1Cl)N1CCn2c(Cl)cnc2C1	200 nM
O=C(c1cccc(C(F)(F)F)c1Cl)N1CCn2c(-c3cnccn3)cnc2C1	2 nM
O=C(c1ccc(F)cc1Cl)N1CCn2c(nnc2-c2cccc3cc[nH]c23)C1	31.6 nM
O=C(c1cccc(C(F)(F)F)c1Cl)N1CCn2c(nc(Cl)c2Cl)C1	3.16 nM
O=C(c1ccc(Cl)cc1Cl)N1CCn2c(nc(Cl)c2Cl)C1	39.8 nM

Compound	IC50
O=C(c1cccc(C(F)(F)F)c1Cl)N1CCn2c(-c3nccs3)cnc2C1	1.58 nM
O=C(c1ccc(F)cc1Cl)N1CCn2c(-c3ccc(F)cn3)cnc2C1	25.1 nM
O=C(c1cccc(C(F)(F)F)c1Cl)N1CCn2c(nnc2C2CC2)C1	31.6 nM
CCCc1nnc2n1CCN(C(=O)c1cccc(C(F)(F)F)c1Cl)C2	25.1 nM
O=C(c1cccc(C(F)(F)F)c1Cl)N1CCn2c(nnc2C2CCCCC2)C1	50.1 nM
Cc1nc(-c2nnc3n2CCN(C(=O)c2ccc(F)cc2Cl)C3)cs1	158 nM
COCCc1nnc2n1CCN(C(=O)c1cccc(C(F)(F)F)c1Cl)C2	100 nM
O=C(c1cccc(C(F)(F)F)c1Cl)N1CCn2c(nnc2-c2ccccc2O)C1	2.51 nM
O=C(c1cccc(C(F)(F)F)c1Cl)N1CCn2c(-c3ncccn3)cnc2C1	1.58 nM
O=C(c1cccc(C(F)(F)F)c1Cl)N1CCn2c(-c3cscn3)cnc2C1	1.26 nM
O=C(c1cccc(C(F)(F)F)c1Cl)N1CCn2c(nnc2C2CCCC2)C1	25.1 nM
Cn1ccnc1-c1nnc2n1CCN(C(=O)c1ccc(F)cc1Cl)C2	316 nM
O=C(c1ccc(F)cc1Cl)N1CCn2c(nnc2-c2cnc(Cl)cn2)C1	200 nM
O=C(c1ccc(Cl)cc1C(F)(F)F)N1CCn2c(nnc2-c2cnccn2)C1	20 nM
Cc1ccc(C(=O)N2CCn3c(nnc3-c3cnccn3)C2)c(C)c1	126 nM
Cc1nn(-c2ccccc2)c(C)c1CC(=O)NCc1ccccc1Br	316 nM
Cc1nn(-c2ccccc2)c(C)c1CC(=O)NCc1cccc(F)c1F	316 nM
Cc1nn(-c2ccccc2)c(C)c1CC(=O)NCc1c(F)cccc1Cl	316 nM
Cc1nn(-c2ccccc2)c(C)c1CC(=O)NCc1cc(C(F)(F)F)ccc1Cl	501 nM
Cc1nn(-c2ccccc2)c(C)c1CC(=O)NCc1cc(F)ccc1C(F)(F)F	501 nM
Cc1nn(-c2ccccc2)c(C)c1CC(=O)NCc1c(Cl)cccc1Cl	63.1 nM

Compound	IC50
Cc1nn(-c2ccccc2)c(C)c1CC(=O)NCc1cc(Cl)ccc1Cl	631 nM
Cc1nn(-c2ccccc2)c(C)c1CC(=O)NCc1ccc(F)cc1C(F)(F)F	158 nM
Cc1nn(-c2ccc(F)cc2F)c(C)c1CC(=O)NCc1ccc(F)cc1Cl	50.1 nM
Cc1nn(-c2cccc(F)c2)c(C)c1CC(=O)NCc1ccc(F)cc1Cl	200 nM
Cc1nn(-c2cccc(Cl)c2)c(C)c1CC(=O)NCc1ccc(F)cc1Cl	316 nM
COc1cccc(-n2nc(C)c(CC(=O)NCc3ccc(F)cc3Cl)c2C)c1	501 nM
Cc1nn(-c2ccccc2F)c(C)c1CC(=O)NCc1ccc(F)cc1Cl	158 nM
Cc1nn(-c2ccccc2Cl)c(C)c1CC(=O)NCc1ccc(F)cc1Cl	100 nM
COc1ccccc1-n1nc(C)c(CC(=O)NCc2ccc(F)cc2Cl)c1C	501 nM
Cc1ccc(-n2nc(C)c(CC(=O)NCc3ccc(F)cc3Cl)c2C)cc1	126 nM
Cc1nn(-c2ccccn2)c(C)c1CC(=O)NCc1ccc(F)cc1Cl	100 nM
Cc1c(CC(=O)NCc2ccc(F)cc2Cl)c(C(C)C)nn1-c1ccccc1	251 nM
Cc1nn(-c2ccccc2)c(C(C)C)c1CC(=O)NCc1ccc(F)cc1Cl	631 nM
Cc1nn(-c2ccc(N3CCCC3=O)cc2)c(C)c1CC(=O)NCc1ccc(F)cc1Cl	63.1 nM
Cc1nn(-c2ccc(C#N)cn2)c(C)c1CC(=O)NCc1ccc(F)cc1Cl	794 nM
Cc1nn(-c2ncc(Cl)cc2Cl)c(C)c1CC(=O)NCc1ccc(F)cc1Cl	200 nM
Cc1nn(-c2ccncc2)c(C)c1CC(=O)NCc1ccc(F)cc1Cl	63.1 nM
Cc1nn(-c2ccc(Cl)cn2)c(C)c1CC(=O)NCc1ccc(F)cc1Cl	251 nM
Cc1nn(-c2nccs2)c(C)c1CC(=O)NCc1ccc(F)cc1Cl	316 nM
Cc1nn(-c2ccccc2)c(C)c1CC(=O)NCc1ccc(Cl)c(Cl)c1	158 nM
Cc1nn(-c2ccccc2)c(C)c1CC(=O)NCc1ccc(F)c(C(F)(F)F)c1	316 nM
